In patent publication US20140039044A1, “Hydroxylated Polymethoxyflavone Compositions” (WLLGEN, INC., priority 2006, published 2014):
Where two headings read alike, the source gives them in different places.

Assays:
Assay type in all cases: cell-based, human
AGS cells [1] = assay: Apoptotic ratio by propidium iodide flow cytometry (AC50); settings: read-out: Apoptosis-inducing AC50
Outline: (§1)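 AC50 denotes the concentration that induces 50% apoptosis. It was derived from propidium iodide–DNA fluorescence measured by flow cytometry after ethanol fixation and RNase treatment. Cells were seeded at 2×10^5, grown 24 h, then exposed to test compounds for 24 h.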

HL-60 cells [2] = assay: as above
Outline: as §1

COLO205 cells [3] = assay: as above
Outline: as §1

AGS cells [4] = assay: Cell cycle distribution by flow cytometry; settings: 24 h, Table 11
Outline: (§2)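 Human cancer cells (2×10^5 per dish) exposed 24 h to compound at 5–100 μM, or DMSO. Cells ethanol-fixed at −20° C overnight, RNase/Triton-treated at 37° C for 30 min, then stained with propidium iodide. DNA content read by FACScan flow cytometry to give phase distribution.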

COLO205 cells [5] = assay: Cell cycle distribution by flow cytometry; settings: COLO205 cells, 24 h, Table 12
Outline: as §2

HT-29 cells = assay: Cell cycle distribution by flow cytometry; settings: 24 h
Outline: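 Cells were treated 24 h with compound at 5, 10, 25, 50 or 100 μM, or with DMSO. They were then ethanol-fixed, RNase-treated and stained with propidium iodide. DNA content was measured by FACScan flow cytometry to give cell-cycle phase distribution.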

HL-60 cells [6] = assay: Cell cycle distribution by flow cytometry; settings: 24 h; for Cell Cycle Distribution G0/G1 / Cell Cycle Distribution G2/M / Cell Cycle Distribution S: Table 10
Outline: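 HL-60 cells were treated for 24 h with compound at 5, 10, 25, 50 or 100 μM, or with DMSO. Cells were then ethanol-fixed, treated with Triton X-100/RNase and stained with propidium iodide. DNA content was measured by flow cytometry to give cell-cycle phase distribution.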

COc1c(OC)c(OC)c2c(=O)cc(-c3ccc(O)c(O)c3)oc2c1OC [H, 3′,4′-dihydroxy-5,6,7,8-tetramethoxyflavone]
AC50 (AGS cells [1]; Homo sapiens, AGS): > 100 µM | AC50 (HL-60 cells [2]; Homo sapiens, HL-60, read-out: Apoptosis-inducing AC50): > 100 µM | AC50 (COLO205 cells [3]; Homo sapiens, COLO 205, read-out: Apoptosis-inducing AC50): > 100 µM | Cell Cycle Distribution G0/G1 (AGS cells [4]; 5 μM): 62.78 ± 2.93 | Cell Cycle Distribution G2/M (AGS cells [4]; 5 μM): 16.57 ± 1.93 | Cell Cycle Distribution S (AGS cells [4]; 5 μM): 20.66 ± 1.00 | Cell Cycle Distribution G0/G1 (AGS cells [4]; 10 μM): 61.72 ± 2.76 | Cell Cycle Distribution G2/M (AGS cells [4]; 10 μM): 17.39 ± 2.76 | Cell Cycle Distribution S (AGS cells [4]; 10 μM): 20.89 ± 0.00 | Cell Cycle Distribution G0/G1 (AGS cells [4]; 25 μM): 63.91 ± 0.92 | Cell Cycle Distribution G2/M (AGS cells [4]; 25 μM): 16.82 ± 1.04 | Cell Cycle Distribution S (AGS cells [4]; 25 μM): 19.28 ± 0.12 | Cell Cycle Distribution G0/G1 (AGS cells [4]; 50 μM): 63.96 ± 1.65 | Cell Cycle Distribution G2/M (AGS cells [4]; 50 μM): 16.74 ± 2.15 | Cell Cycle Distribution S (AGS cells [4]; 50 μM): 19.31 ± 0.51 | Cell Cycle Distribution G0/G1 (AGS cells [4]; 100 μM): 68.04 ± 1.34 | Cell Cycle Distribution G2/M (AGS cells [4]; 100 μM): 22.69 ± 0.13 | Cell Cycle Distribution S (AGS cells [4]; 100 μM): 9.27 ± 1.46 | Cell Cycle Distribution G0/G1 (COLO205 cells [5]; 5 μM): 67.26 ± 0.45 | Cell Cycle Distribution G2/M (COLO205 cells [5]; 5 μM): 8.17 ± 0.60 | Cell Cycle Distribution S (COLO205 cells [5]; 5 μM): 24.58 ± 0.15 | Cell Cycle Distribution G0/G1 (COLO205 cells [5]; 10 μM): 66.67 ± 0.16 | Cell Cycle Distribution G2/M (COLO205 cells [5]; 10 μM): 6.18 ± 0.63 | Cell Cycle Distribution S (COLO205 cells [5]; 10 μM): 27.16 ± 0.46 | Cell Cycle Distribution G0/G1 (COLO205 cells [5]; 25 μM): 66.99 ± 1.32 | Cell Cycle Distribution G2/M (COLO205 cells [5]; 25 μM): 6.89 ± 0.21 | Cell Cycle Distribution S (COLO205 cells [5]; 25 μM): 26.13 ± 1.11 | Cell Cycle Distribution G0/G1 (COLO205 cells [5]; 50 μM): 64.49 ± 1.00 | Cell Cycle Distribution G2/M (COLO205 cells [5]; 50 μM): 8.94 ± 1.12 | Cell Cycle Distribution S (COLO205 cells [5]; 50 μM): 26.57 ± 2.12 | Cell Cycle Distribution G0/G1 (COLO205 cells [5]; 100 μM): 66.50 ± 0.06 | Cell Cycle Distribution G2/M (COLO205 cells [5]; 100 μM): 6.98 ± 0.02 | Cell Cycle Distribution S (COLO205 cells [5]; 100 μM): 26.53 ± 0.08 | Cell Cycle Distribution G0/G1 (HT-29 cells; 5 μM): 63.21 ± 1.82 | Cell Cycle Distribution G2/M (HT-29 cells; 5 μM): 7.53 ± 0.81 | Cell Cycle Distribution S (HT-29 cells; 5 μM): 29.26 ± 2.63 | Cell Cycle Distribution G0/G1 (HT-29 cells; 10 μM): 64.87 ± 0.74 | Cell Cycle Distribution G2/M (HT-29 cells; 10 μM): 8.19 ± 0.09 | Cell Cycle Distribution S (HT-29 cells; 10 μM): 26.95 ± 0.64 | Cell Cycle Distribution G0/G1 (HT-29 cells; 25 μM): 63.87 ± 0.92 | Cell Cycle Distribution G2/M (HT-29 cells; 25 μM): 8.45 ± 0.46 | Cell Cycle Distribution S (HT-29 cells; 25 μM): 27.68 ± 1.37 | Cell Cycle Distribution G0/G1 (HT-29 cells; 50 μM): 63.10 ± 0.16 | Cell Cycle Distribution G2/M (HT-29 cells; 50 μM): 7.94 ± 0.84 | Cell Cycle Distribution S (HT-29 cells; 50 μM): 28.98 ± 0.69 | Cell Cycle Distribution G0/G1 (HT-29 cells; 100 μM): 61.66 ± 1.44 | Cell Cycle Distribution G2/M (HT-29 cells; 100 μM): 4.98 ± 1.55 | Cell Cycle Distribution S (HT-29 cells; 100 μM): 33.37 ± 0.11 | Cell Cycle Distribution G0/G1 (HL-60 cells [6]; 5 μM): 49.78 ± 1.80 | Cell Cycle Distribution G2/M (HL-60 cells [6]; 5 μM): 4.37 ± 5.00 | Cell Cycle Distribution S (HL-60 cells [6]; 5 μM): 45.85 ± 6.80 | Cell Cycle Distribution G0/G1 (HL-60 cells [6]; 10 μM): 49.29 ± 1.53 | Cell Cycle Distribution G2/M (HL-60 cells [6]; 10 μM): 2.76 ± 3.90 | Cell Cycle Distribution S (HL-60 cells [6]; 10 μM): 47.95 ± 5.43 | Cell Cycle Distribution G0/G1 (HL-60 cells [6]; 25 μM): 52.82 ± 0.15 | Cell Cycle Distribution G2/M (HL-60 cells [6]; 25 μM): 5.49 ± 1.11 | Cell Cycle Distribution S (HL-60 cells [6]; 25 μM): 41.68 ± 0.93 | Cell Cycle Distribution G0/G1 (HL-60 cells [6]; 50 μM): 62.04 ± 1.19 | Cell Cycle Distribution G2/M (HL-60 cells [6]; 50 μM): 10.70 ± 0.89 | Cell Cycle Distribution S (HL-60 cells [6]; 50 μM): 27.27 ± 0.31 | Cell Cycle Distribution G0/G1 (HL-60 cells [6]; 100 μM): 61.15 ± 7.03 | Cell Cycle Distribution G2/M (HL-60 cells [6]; 100 μM): 25.94 ± 8.32 | Cell Cycle Distribution S (HL-60 cells [6]; 100 μM): 12.91 ± 15.34 | Cell cycle arrest, in words (HL-60 cells [6]; 25-100 μM): significant G1 arrest

COc1ccc(-c2oc3c(OC)c(OC)c(OC)c(OC)c3c(=O)c2O)cc1OC [B, 3-hydroxy-5,6,7,8,3′,4-hexamethoxyflavone]
AC50 (AGS cells [1]; AGS cells): > 100 µM | AC50 (HL-60 cells [2]; HL-60 cells, read-out: Apoptosis-inducing AC50): 56.5 ± 2.39 µM | AC50 (COLO205 cells [3]; COLO205 cells, read-out: Apoptosis-inducing AC50): > 100 µM | Cell Cycle Distribution G0/G1 (AGS cells [4]; 5 μM): 47.1 ± 1.27 | Cell Cycle Distribution G2/M (AGS cells [4]; 5 μM): 5.6 ± 0.28 | Cell Cycle Distribution S (AGS cells [4]; 5 μM): 45.8 ± 1.20 | Cell Cycle Distribution G0/G1 (AGS cells [4]; 10 μM): 46.7 ± 0.92 | Cell Cycle Distribution G2/M (AGS cells [4]; 10 μM): 10.4 ± 0.07 | Cell Cycle Distribution S (AGS cells [4]; 10 μM): 44.1 ± 0.57 | Cell Cycle Distribution G0/G1 (AGS cells [4]; 25 μM): 39.8 ± 0.78 | Cell Cycle Distribution G2/M (AGS cells [4]; 25 μM): 6.5 ± 0.07 | Cell Cycle Distribution S (AGS cells [4]; 25 μM): 54.2 ± 0.28 | Cell Cycle Distribution G0/G1 (AGS cells [4]; 50 μM): 43.1 ± 1.56 | Cell Cycle Distribution G2/M (AGS cells [4]; 50 μM): 7.4 ± 0.42 | Cell Cycle Distribution S (AGS cells [4]; 50 μM): 51.2 ± 1.06 | Cell Cycle Distribution G0/G1 (AGS cells [4]; 100 μM): 46.8 ± 0.28 | Cell Cycle Distribution G2/M (AGS cells [4]; 100 μM): 9.3 ± 0.42 | Cell Cycle Distribution S (AGS cells [4]; 100 μM): 44.5 ± 0.14 | Cell Cycle Distribution G0/G1 (COLO205 cells [5]; 5 μM): 63.59 ± 0.48 | Cell Cycle Distribution G2/M (COLO205 cells [5]; 5 μM): 0.89 ± 0.94 | Cell Cycle Distribution S (COLO205 cells [5]; 5 μM): 35.53 ± 0.46 | Cell Cycle Distribution G0/G1 (COLO205 cells [5]; 10 μM): 63.12 ± 0.20 | Cell Cycle Distribution G2/M (COLO205 cells [5]; 10 μM): 5.63 ± 0.28 | Cell Cycle Distribution S (COLO205 cells [5]; 10 μM): 31.25 ± 0.48 | Cell Cycle Distribution G0/G1 (COLO205 cells [5]; 25 μM): 64.96 ± 0.99 | Cell Cycle Distribution G2/M (COLO205 cells [5]; 25 μM): 0.41 ± 0.31 | Cell Cycle Distribution S (COLO205 cells [5]; 25 μM): 34.63 ± 0.68 | Cell Cycle Distribution G0/G1 (COLO205 cells [5]; 50 μM): 63.32 ± 0.52 | Cell Cycle Distribution G2/M (COLO205 cells [5]; 50 μM): 0.31 ± 0.11 | Cell Cycle Distribution S (COLO205 cells [5]; 50 μM): 36.39 ± 0.62 | Cell Cycle Distribution G0/G1 (COLO205 cells [5]; 100 μM): 78.51 ± 0.63 | Cell Cycle Distribution G2/M (COLO205 cells [5]; 100 μM): 3.99 ± 0.95 | Cell Cycle Distribution S (COLO205 cells [5]; 100 μM): 17.51 ± 1.58 | Cell Cycle Distribution G0/G1 (HT-29 cells; 5 μM): 63.71 ± 1.80 | Cell Cycle Distribution G2/M (HT-29 cells; 5 μM): 6.50 ± 0.37 | Cell Cycle Distribution S (HT-29 cells; 5 μM): 29.8 ± 1.42 | Cell Cycle Distribution G0/G1 (HT-29 cells; 10 μM): 69.27 ± 3.06 | Cell Cycle Distribution G2/M (HT-29 cells; 10 μM): 5.60 ± 0.85 | Cell Cycle Distribution S (HT-29 cells; 10 μM): 25.14 ± 2.21 | Cell Cycle Distribution G0/G1 (HT-29 cells; 25 μM): 70.85 ± 1.84 | Cell Cycle Distribution G2/M (HT-29 cells; 25 μM): 4.37 ± 0.62 | Cell Cycle Distribution S (HT-29 cells; 25 μM): 24.8 ± 1.23 | Cell Cycle Distribution G0/G1 (HT-29 cells; 50 μM): 70.11 ± 1.44 | Cell Cycle Distribution G2/M (HT-29 cells; 50 μM): 10.73 ± 0.47 | Cell Cycle Distribution S (HT-29 cells; 50 μM): 19.18 ± 0.96 | Cell Cycle Distribution G0/G1 (HT-29 cells; 100 μM): 66.75 ± 1.06 | Cell Cycle Distribution G2/M (HT-29 cells; 100 μM): 8.82 ± 0.26 | Cell Cycle Distribution S (HT-29 cells; 100 μM): 24.45 ± 0.80 | Cell Cycle Distribution G0/G1 (HL-60 cells [6]; 5 μM): 42.63 ± 0.85 | Cell Cycle Distribution G2/M (HL-60 cells [6]; 5 μM): 9.99 ± 1.70 | Cell Cycle Distribution S (HL-60 cells [6]; 5 μM): 47.38 ± 0.42 | Cell Cycle Distribution G0/G1 (HL-60 cells [6]; 10 μM): 40.76 ± 0.28 | Cell Cycle Distribution G2/M (HL-60 cells [6]; 10 μM): 0.23 ± 0.42 | Cell Cycle Distribution S (HL-60 cells [6]; 10 μM): 59.01 ± 0.78 | Cell Cycle Distribution G0/G1 (HL-60 cells [6]; 25 μM): 47.74 ± 0.71 | Cell Cycle Distribution G2/M (HL-60 cells [6]; 25 μM): 0.00 ± 0.64 | Cell Cycle Distribution S (HL-60 cells [6]; 25 μM): 52.26 ± 0.64 | Cell Cycle Distribution G0/G1 (HL-60 cells [6]; 50 μM): 41.48 ± 0.85 | Cell Cycle Distribution G2/M (HL-60 cells [6]; 50 μM): 0.00 ± 0.57 | Cell Cycle Distribution S (HL-60 cells [6]; 50 μM): 58.52 ± 0.42 | Cell Cycle Distribution G0/G1 (HL-60 cells [6]; 100 μM): 49.63 ± 0.28 | Cell Cycle Distribution G2/M (HL-60 cells [6]; 100 μM): 0.51 ± 0.64 | Cell Cycle Distribution S (HL-60 cells [6]; 100 μM): 43.86 ± 0.21
